Measurements reported in patent US20240025862A1, “SUBSTITUTED N-PHENYLURACILS AND SALTS THEREOF, AND USE THEREOF AS HERBICIDAL ACTIVE SUBSTANCES” (Bayer Aktiengesellschaft, priority 2020, published 2024).

How the values were obtained:
Assay type in all cases: in vivo
[1] = system: Triticum aestivum (TRZAS); test: Post-emergence crop plant compatibility, greenhouse pot test; conditions: vs untreated controls
Protocol: (§1) Seeds of monocotyledonous and dicotyledonous weeds and crop plants were placed in sandy loam in plastic or wood-fiber pots, covered with soil and cultivated in a greenhouse under controlled growth conditions. 2 to 3 weeks after sowing, the test plants were treated at the one-leaf stage. The compounds of the invention, formulated in the form of wettable powders (WP) or as emulsion concentrates (EC), were then sprayed onto the green parts of the plants as aqueous suspension or emulsion with addition of 0.5% additive at a water application rate of 600 l/ha (converted). After the test plants had been kept in the greenhouse under optimum growth conditions for about 3 weeks, the activity of the preparations was rated visually in comparison to untreated controls. For example, 100% activity=the plants have died, 0% activity=like control plants.
(§2) The observed effects on selected crop plants are reported here in comparison to the untreated controls (values in %). The appendices “a”, “b” and “c” give differentiation by different dosage with otherwise the same crop plants tested.

[2] = system: Zea mays (ZEAMX); test: as above; conditions: 1.25 g/ha, vs untreated controls
Protocol: as §1, §2

[3] = system: Setaria viridis (SETVI); test: Post-emergence herbicidal action, greenhouse pot test (also comparative test C); conditions: for Post-emergence action against SETVI: 20 g/ha
Protocol: as §1
(§3) Tables A1 to A14 below show the effects of selected compounds of the general formula (I) according to Tables I.1 to I.33 on various harmful plants and at an application rate corresponding to 20 g/ha and less, which were obtained by the experimental method specified above. The appendices “a”, “b” and “c” give differentiation by different dosage with otherwise the same harmful plants tested.
(§4) C. Comparative Herbicidal Action and Crop Plant Compatibility of Two Inventive Compounds (I.7-1 and I.7-115) with a Compound of Similar Structure Known from the Literature (WO2002/098227, a-17 and EP1106607, 3-14) in Post-Emergence Treatment.
(§5) Tables C1-C4 below show the effects of two inventive compounds (I.7-1 and I.7-115) together with a compound of similar structure known from the literature (a-17 in WO2002/098227, and 3-14 in EP1106607) in different crop plants at an application rate corresponding to 5 g/ha or less, which have been obtained by the aforementioned experimental procedure.

[4] = system: Echinochloa crus-galli (ECHCG); test: as above
Protocol: as §1, §3, §4, §5

[5] = system: Matricaria inodora (MATIN); test: as above
Protocol: as §1, §3, §4, §5

[6] = system: Polygonum convolvulus (POLCO); test: Post-emergence herbicidal action, greenhouse pot test
Protocol: as §1, §3

[7] = system: Veronica persica (VERPE); test: as above
Protocol: as §1, §3

[8] = system: Amaranthus retroflexus (AMARE); test: as above; conditions: rated visually after about 3 weeks vs untreated controls, 100% = plants have died
Protocol: as §1, §3

[9] = system: Abutilon theophrasti (ABUTH); test: as above; conditions: rated visually after about 3 weeks vs untreated controls, 100% = plants have died
Protocol: as §1, §3

[10] = system: Viola tricolor (VIOTR); test: as above
Protocol: as §1, §3

[11] = system: Pharbitis purpurea (PHBPU); test: as above
Protocol: as §1, §3

[12] = system: Oryza sativa (ORYSA); test: Post-emergence crop plant compatibility, greenhouse pot test (also comparative test C); conditions: for Post-emergence action against ORYSA (crop plant compatibility): vs untreated controls
Protocol: as §1, §2, §4

[13] = system: Alopecurus myosuroides (ALOMY); test: Post-emergence herbicidal action, greenhouse pot test (also comparative test C); conditions: 20 g/ha, rated visually after about 3 weeks vs untreated controls, 100% = plants have died
Protocol: as §1, §3, §4, §5

Post-emergence action against TRZAS (crop plant compatibility) ([1]; 1.25 g/ha) [%] | Post-emergence action against ZEAMX (crop plant compatibility) [2] [%] | SMILES | Post-emergence action against SETVI [3] [%] | Post-emergence action against SETVI in % ([3]; dosage 1.25 g/ha) [%] | Post-emergence action against SETVI in % ([3]; dosage 5 g/ha) [%] | Post-emergence action against ECHCG in % ([4]; dosage 5 g/ha) [%] | Post-emergence action against ECHCG in % ([4]; dosage 20 g/ha) [%] | Post-emergence action against MATIN in % ([5]; dosage 20 g/ha) [%] | Post-emergence action against POLCO in % ([6]; dosage 20 g/ha) [%] | Post-emergence action against VERPE ([7]; 5 g/ha) [%] | Post-emergence action against VERPE ([7]; 20 g/ha) [%] | Post-emergence action at 5 g/ha against AMARE in % [8] [%] | Post-emergence action at 20 g/ha against AMARE in % [8] [%] | Post-emergence action at 5 g/ha against ABUTH in % [9] [%] | Post-emergence action at 20 g/ha against ABUTH in % [9] [%] | Post-emergence action against VIOTR ([10]; 1.25 g/ha) [%] | Post-emergence action against VIOTR ([10]; 5 g/ha) [%] | Post-emergence action against VIOTR ([10]; 20 g/ha) [%] | Post-emergence action against PHBPU in % ([11]; dosage 5 g/ha) [%] | Post-emergence action against PHBPU in % ([11]; dosage 20 g/ha) [%] | also measured
0 | 10 | COCCOC(=O)COc1ccccc1Oc1cc(-n2c(=O)cc(C(F)(F)F)n(C)c2=O)c(F)cc1C#N [I.9-1] | 100 | 80 | 100 | 90 | 100 | 100 | 100 | 100 | 100 | 100 | 100 | 100 | 100 | 100 | 100 | 100 | 100 | 100 | Post-emergence action against TRZAS (crop plant compatibility) ([1]; 5 g/ha): 10%; Post-emergence action against TRZAS (crop plant compatibility) ([1]; 20 g/ha): 10%; Post-emergence action against MATIN in % ([5]; dosage 5 g/ha): 80%; Post-emergence action against VERPE ([7]; 1.25 g/ha): 100%; Post-emergence action at 1.25 g/ha against AMARE in % [8]: 100%; Post-emergence action at 1.25 g/ha against ABUTH in % [9]: 100%; Post-emergence action against ORYSA (crop plant compatibility) ([12]; 1.25 g/ha): 0%; Post-emergence action against ORYSA (crop plant compatibility) ([12]; 5 g/ha): 20%
20 | 20 | COCCOC(=O)COc1ccc(F)cc1Oc1cc(-n2c(=O)cc(C(F)(F)F)n(C)c2=O)c(F)cc1Cl [I.23-1] | 100 | 100 | 100 | 100 | 100 | 100 | 100 | 100 | 100 | 100 | 100 | 100 | 100 | 80 | 100 | 100 | 80 | 80 | Post-emergence action at 20 g/ha against ALOMY in % [13]: 90%; Post-emergence action against MATIN in % ([5]; dosage 5 g/ha): 80%; Post-emergence action against POLCO in % ([6]; dosage 1.25 g/ha): 90%; Post-emergence action against POLCO in % ([6]; dosage 5 g/ha): 100%; Post-emergence action against VERPE ([7]; 1.25 g/ha): 80%; Post-emergence action at 1.25 g/ha against ABUTH in % [9]: 100%; Post-emergence action against ORYSA (crop plant compatibility) ([12]; 1.25 g/ha): 0%
20 | 20 | Cn1c(C(F)(F)F)cc(=O)n(-c2cc(Oc3c(F)cccc3OCC(=O)OCc3ccccn3)c(Cl)cc2F)c1=O [I.19-276] | 100 | 100 | 100 | 100 | 100 | 100 | 100 | 100 | 100 | 100 | 100 | 100 | 100 | 100 | 100 | 100 | 100 | 100 | Post-emergence action at 20 g/ha against ALOMY in % [13]: 90%; Post-emergence action against MATIN in % ([5]; dosage 5 g/ha): 100%; Post-emergence action against POLCO in % ([6]; dosage 5 g/ha): 100%; Post-emergence action against VERPE ([7]; 1.25 g/ha): 100%; Post-emergence action at 1.25 g/ha against AMARE in % [8]: 100%; Post-emergence action at 1.25 g/ha against ABUTH in % [9]: 100%; Post-emergence action against ORYSA (crop plant compatibility) ([12]; 1.25 g/ha): 0%; Post-emergence action against ORYSA (crop plant compatibility) ([12]; 5 g/ha): 0%
0 |  | COCCOCCOC(=O)COc1ccccc1Oc1cc(-n2c(=O)cc(C(F)(F)F)n(C)c2=O)c(F)cc1C#N [I.9-23] | 100 | 100 | 100 |  | 100 | 100 | 100 | 100 | 100 | 100 | 100 | 100 | 100 | 100 | 100 | 100 | 100 | 100 | Post-emergence action against TRZAS (crop plant compatibility) ([1]; 5 g/ha): 20%; Post-emergence action against TRZAS (crop plant compatibility) ([1]; 20 g/ha): 20%; Post-emergence action at 20 g/ha against ALOMY in % [13]: 80%; Post-emergence action against MATIN in % ([5]; dosage 5 g/ha): 80%; Post-emergence action against POLCO in % ([6]; dosage 5 g/ha): 100%; Post-emergence action against VERPE ([7]; 1.25 g/ha): 80%; Post-emergence action at 1.25 g/ha against AMARE in % [8]: 100%; Post-emergence action at 1.25 g/ha against ABUTH in % [9]: 80%; Post-emergence action against PHBPU in % ([11]; dosage 1.25 g/ha): 80%; Post-emergence action against ORYSA (crop plant compatibility) ([12]; 1.25 g/ha): 0%; Post-emergence action against ORYSA (crop plant compatibility) ([12]; 5 g/ha): 0%; Post-emergence action against ORYSA in % ([12]; 20 g/ha, crop plant compatibility): 20%
20 | 20 | COCCOCCOC(=O)COc1ccc(F)cc1Oc1cc(-n2c(=O)cc(C(F)(F)F)n(C)c2=O)c(F)cc1Cl [I.23-23] | 100 | 100 | 100 | 100 | 100 | 100 | 100 | 100 | 100 | 100 | 100 | 100 | 100 | 100 | 100 | 100 | 100 | 100 | Post-emergence action at 20 g/ha against ALOMY in % [13]: 100%; Post-emergence action against POLCO in % ([6]; dosage 1.25 g/ha): 100%; Post-emergence action against POLCO in % ([6]; dosage 5 g/ha): 100%; Post-emergence action at 1.25 g/ha against AMARE in % [8]: 100%; Post-emergence action against PHBPU in % ([11]; dosage 1.25 g/ha): 100%
